Test results from US20060040909A1, “Selenophene compounds” (DEVELOPMENT CENTER FOR BIOTECHNOLOGY, priority 2004, published 2006).

Tested on: Hep-3B liver cancer cells
Assay: In vivo assay, Hep-3B cells transplanted subcutaneously into athymic mice
Conditions: intraperitoneally, once every two days, 14th day, vs control group
Method: Compound 3 was tested for its efficacy against Hep-3B liver cancer cells implanted in mice of two treated groups at a […] dosage of 50 mg/kg and 75 mg/kg. In a control group, mice bearing Hep-3B liver cancer cells were not treated with any test compound. Male athymic mice (Ncr nu/nu) of 4-6 weeks of age and weighing 20-25 g were used. Mice were housed in cages in ventilated cabinets and provided sterilized pellet diet and sterile water ad libitum. The temperature was kept between 23-25° C. and a humidity of about 50±10%. Light of the housing area was on a 12-hour light/dark cycle. All experimentation was performed under the IACUC guidelines adopted by the Development Center for Biotechnology, Taiwan. Hep-3B cells were transplanted subcutaneously into athymic mice. In the treated groups, when the tumor reached a volume of about 50 mm^3, mice were treated with compound 3 at a dosage of 50 mg/kg or 75 mg/kg once every two days for three times. The treated groups and the control group each had 7 mice. Compound 3 was administered intraperitoneally. The sizes of tumors were measured using a caliper at least twice a week and the tumor volume (TV) was calculated. Body weights were also monitored along with tumor volume measurement. The percentage of tumor growth was determined by dividing the mean TV of the treated group by the mean TV of a control group.

Cn1c(-c2ccc(CO)[se]2)cc(CO)c1-c1ccc(CO)[se]1 [Compound 3]
mean TV (tumor volume) reduced (three doses of 50 mg/kg): 37%
mean TV (tumor volume) reduced (three doses of 75 mg/kg): 63%
